{"source": "patent US6723702B2", "about": "“Use of relaxin treat diseases related to vasoconstriction” (RAS Medical, Inc., priority 2000, dated 2004)", "key": {"rats": {"system": "rats", "assay": "Metabolic cage studies", "assay_type": "in vivo, rat", "description": "Six rats were individually housed in Nalgene metabolism cages (Rodent Metabolism Cages for 150-300 g rats, VWR Scientific). Water and food were provided ad libidum. After 5-7 days of habituation, two baseline 24-hour urine collections were obtained. Then, an osmotic minipump containing purified porcine RLX was implanted (4 μg/hour). […] Food and water intake, as well as urinary flow rate were measured by gravimetric technique. The urinary excretion of sodium, cyclic guanosine monophosphate, and NOx were also determined. The measurements made during the two baseline collections were averaged, as were the measurements made during the three post-relaxin collections.\nPlasma osmolality was measured using a freezing-point depression instrumentation osmometer (Model 3MO, Advanced Instruments, Needham Heights, Mass.). Plasma and urine IN and PAH were assayed by standard techniques. Urinary sodium concentration was measured by ion selective electrode (Sodium-Potassium Chemistry Module, Beckman Instruments, Inc., Brea, Calif.). Urinary cGMP was determined by specific radioimmunoassay as previously described. Conrad and Vernier (1989) Am. J. Physiol. 257:R847-R853. Urinary NOX was measured by reduction of nitrate to nitrite, the latter determined by the Griess reaction which produces a calorimetric product measured at 540 nm (Nitrate/Nitrite Colorimetric Assay Kit, Cayman Chemical, Ann Arbor, Mich.)."}, "[1]": {"system": "wound chambers at shoulder and hip of Sprague Dawley rats", "assay": "Hunt-Schilling wound chamber assay", "assay_type": "in vivo, rat", "description": "The effect of rhRLX on normal and ischemic wound healing in two rat models of dermal wound healing was evaluated. RhRLX in vehicle, or vehicle alone, was delivered by subcutaneous infusion to Sprague-Dawley rats using an implanted ALZET7 osmotic pump (Alza Corp., Mountain View, Calif.).\nIn the first model, Hunt-Schilling wound chambers were implanted subcutaneously at either the shoulder or the hip region. The fluid and cells contained within each wound chamber were collected on day 18 for analysis of VEGF protein and mRNA. VEGF protein was detected and measured using ELISA. VEGF-encoding mRNA was detected using Northern blotting and RT-PCR. The granulation tissue within the wound chambers was collected for histological and immunohistochemical evaluation.\nStainless steel mesh cylinders (0.9 cm×3.4 cm) fitted with silicone rubber plugs at both ends were autoclaved prior to implantation. Chambers were implanted into two separate subcutaneous pockets (“Site 1” on the shoulder and “Site 2” on the hip) on the backs of Sprague Dawley rats. At the same time, osmotic pumps were implanted in a subcutaneous pocket at site distal to that of the chambers. At 18 days, chambers were carefully dissected free from the interstitium, and fluid aspirated using an 18-gauge needle through the silicone plugs at the end of the cylinder, and immediately placed on ice. Cells suspended within the fluid were pelleted by centrifugation, and cells and fluid were separated. Total RNA was harvested using RNAzol (Tel-Test, Inc., Friendswood, Tex.), according to vendor instructions. Fluid was immediately frozen, and assayed at a later date for cyokine content.\nPrimers were purchased from BioSource International (Camarillo, Calif.) and visualized using agarose gel electrophoresis.\nSense and anti-sense primers for use with the real time RT-PCR, ABI Prism 7700 Sequence Detection System were designed using the PrimerExpress version 1.0 software (PE Applied Biosystems, Inc.). Rat and human specific primer/probe sets included those for GAPDH, bFGF, the VEGF 164 aa or 120 aa rat isoforms, and their respective human homologues (VEGF 165 and VEGF 121). ABI PRISM specific primer/probes were purchased from BioSource International Inc. or PE Applied Biosystems.\nRT-PCR was performed on 150 ng for the analysis of VEGF and bFGF mRNA expression. Ten nanograms of total RNA was used for GAPDH niRNA expression. PCR products using the ABI Prism 7700 Sequence Detection system (all reactions in a total volume of […]) were generated using primer/probe annealing temperatures of 58° C. and 35 cycles of PCR. Data were analyzed using Sequence Detector v1.6.3 software (Applied Biosystems/PE).\nRelaxin was administered systemically to rats using osmotic pumps. In order to assess relaxin's ability to modulate expression of angiogenic cytokines at wound sites, Hunt-Schilling wound chambers were used for fluid and inflammatory cell collection. Wound chambers were implanted subcutaneously at two sites, the shoulder and the hip, distal to the site of pump implantation. Fluid and cells were collected at a point (18 days) during the healing time course when endogenous angiogenic activity and the cellular source, macrophages, were known to be present. Total RNA was harvested from wound cells and analyzed by RT-PCR for VEGF transcripts. When analyzed on an agarose gel, there were two distinct bands comprising the amplified products, corresponding to the 121aa and 164aa, isoforms of VEGF.\nTo assess the effect of rhRlx treatment on granulation tissue formation in normal and ischemic wounds, Hunt-Schilling wound chambers were implanted subcutaneously in either the shoulder or the more hypoxic hip region of female Sprague Dawley rats (Charles River Laboratories, Mass.). The wound chambers, fine stainless steel mesh cylinders sealed with medical grade silicone, provide a defined dead space for granulation tissue formation. […]"}, "[2]": {"conditions": "wound chamber cells, both shoulder and hip region, day 18"}, "[3]": {"conditions": "wound chambers in the hip region"}}, "data": [{"substance": "Porcine RLX: lyophilized, purified porcine relaxin (Sherwood and O'Byrne 1974), dissolved in Ringer's solution", "values": [{"measurement": "Food intake", "setting": "rats; Baseline", "value": "13.2 ± 1.0", "unit": "g"}, {"measurement": "Urinary NOx excretion", "setting": "rats; Baseline", "value": "4.8 ± 0.5", "unit": "μmole/24hours"}, {"measurement": "Urinary cGMP excretion", "setting": "rats; Baseline", "value": "32.2 ± 1.9", "unit": "nmole/24 hours"}, {"measurement": "Urinay sodium excretion", "setting": "rats; Baseline", "value": "438.8 ± 34.4", "unit": "μEq/24hours"}, {"measurement": "Urine output", "setting": "rats; Baseline", "value": "9.1 ± 1.7", "unit": "ml/24 hours"}, {"measurement": "Water intake", "setting": "rats; Baseline", "value": "19.1 ± 2.7", "unit": "mL"}, {"measurement": "Food intake", "setting": "rats; Day 2 of RLX 4 μg/hour s.c.", "value": "15.5 ± 1.5", "unit": "g"}, {"measurement": "Urinary NOx excretion", "setting": "rats; Day 2 of RLX 4 μg/hour s.c.", "value": "6.0 ± 1.0", "unit": "μmole/24hours"}, {"measurement": "Urinary cGMP excretion", "setting": "rats; Day 2 of RLX 4 μg/hour s.c.", "value": "26.5 ± 2.5", "unit": "nmole/24 hours"}, {"measurement": "Urinay sodium excretion", "setting": "rats; Day 2 of RLX 4 μg/hour s.c.", "value": "800.2 ± 77.2", "unit": "μEq/24hours"}, {"measurement": "Urine output", "setting": "rats; Day 2 of RLX 4 μg/hour s.c.", "value": "11.4 ± 2.2", "unit": "ml/24 hours"}, {"measurement": "Water intake", "setting": "rats; Day 2 of RLX 4 μg/hour s.c.", "value": "20.1 ± 3.4", "unit": "mL"}, {"measurement": "Food intake", "setting": "rats; Day 5 of RLX 4 μg/hour s.c.", "value": "16.7 ± 1.0", "unit": "g"}, {"measurement": "Urinary NOx excretion", "setting": "rats; Day 5 of RLX 4 μg/hour s.c.", "value": "5.9 ± 0.7", "unit": "μmole/24hours"}, {"measurement": "Urinary cGMP excretion", "setting": "rats; Day 5 of RLX 4 μg/hour s.c.", "value": "28.6 ± 3.8", "unit": "nmole/24 hours"}, {"measurement": "Urinay sodium excretion", "setting": "rats; Day 5 of RLX 4 μg/hour s.c.", "value": "477.8 ± 57.9", "unit": "μEq/24hours"}, {"measurement": "Urine output", "setting": "rats; Day 5 of RLX 4 μg/hour s.c.", "value": "8.8 ± 0.9", "unit": "ml/24 hours"}, {"measurement": "Water intake", "setting": "rats; Day 5 of RLX 4 μg/hour s.c.", "value": "23.6 ± 3.3", "unit": "mL"}, {"measurement": "Food intake", "setting": "rats; Post-relaxin day 4-18", "value": "15.3 ± 0.5", "unit": "g"}, {"measurement": "Urinary NOx excretion", "setting": "rats; Post-relaxin day 4-18", "value": "6.1 ± 0.9", "unit": "μmole/24hours"}, {"measurement": "Urinary cGMP excretion", "setting": "rats; Post-relaxin day 4-18", "value": "32.7 ± 3.8", "unit": "nmole/24 hours"}, {"measurement": "Urinay sodium excretion", "setting": "rats; Post-relaxin day 4-18", "value": "480.69 ± 54.4", "unit": "μEq/24hours"}, {"measurement": "Urine output", "setting": "rats; Post-relaxin day 4-18", "value": "9.1 ± 1.1", "unit": "ml/24 hours"}, {"measurement": "Water intake", "setting": "rats; Post-relaxin day 4-18", "value": "19.1 ± 2.6", "unit": "mL"}]}, {"substance": "rhRLX: recombinant human relaxin, identical in amino acid sequence to the product of the human H2 gene; A chain of 24, B chain of 29 amino acids", "values": [{"measurement": "expression of VEGF 164 mRNA", "setting": "[1]; anteriorly placed (shoulder) wound chamber, real-time RT-PCR", "value": "upregulated"}, {"measurement": "bFGF transcripts in wound cells", "setting": "[1]; both shoulder and hip chambers", "value": "significant upregulation"}, {"measurement": "VEGF 120 mRNA", "setting": "[1]; both sites, real-time RT-PCR", "value": "trends toward increases"}, {"measurement": "expression of VEGF 164 mRNA", "setting": "[1]; chamber placed on the hip, real-time RT-PCR", "value": "trend toward an increase"}, {"measurement": "bFGF, and VEGF expression in wounds cells", "setting": "[1]; hip region (Example 7)", "value": "increase"}, {"measurement": "new blood vessel formation", "setting": "[1]; hip region (Example 7)", "value": "increase"}, {"measurement": "Expression of both VEGF isoforms, RT-PCR on agarose gel", "setting": "[1]; wound cells, 18 days", "value": "appeared to be enhanced"}, {"measurement": "VEGF mRNA increase compared to vehicle-treated rats", "setting": "[1]; [2]", "value": 31, "unit": "%"}, {"measurement": "bFGF mRNA increase compared to vehicle-treated rats", "setting": "[1]; [2]", "value": 59, "unit": "%"}, {"measurement": "weight of granulation tissue", "setting": "[1]; wound chambers at the hip region, day 18 (Example 7)", "value": "significant increase"}, {"measurement": "amount of extracellular matrix deposition", "setting": "[1]; [3]", "value": "increased"}, {"measurement": "amount of granulation tissue", "setting": "[1]; [3]", "value": 255, "unit": "mg"}, {"measurement": "number of capillaries", "setting": "[1]; [3]", "value": "increased"}, {"measurement": "tissue weight", "setting": "[1]; wound chambers in the shoulder region", "value": 283, "unit": "mg"}]}]}
